# Reference: US8828997B2, “2,3-dihydro-1H-imidazo(1,2-a)pyrimidin-5-one derivatives, preparation thereof, and pharmaceutical use thereof” (Sanofi, priority 2009, dated 2014)
# Columns and labels:
# Type in all cases: cell-based
# [1] = tested on: AKT protein phosphorylated on serine 473 (P-AKT-S473) in PC3 human prostate carcinoma cells; assay: pAKT expression in PC3 human prostate carcinoma cells measured by MSD Multi-spot Biomarker detection (test B); conditions: MSD sandwich immunoassay, 1 to 2 h incubation, absolute IC50
# Experimental: The inhibitory activity of the molecules on AKT phosphorylation is measured either by western blotting using the technique described below, or by the MSD Multi-spot Biomarker detection technique from Meso Scale Discovery also described below.
# Study of pAKT Expression in PC3 Human Prostate Carcinoma Cells Measured by the MSD Multi-Spot Biomarker Detection Technique from Meso Scale Discovery (Test B):
# This test is based on measuring the expression of the AKT protein phosphorylated on serine 473 (P-AKT-S473), in the PC3 human prostate carcinoma line, by means of the technique based on a sandwich immunoassay using the MSD Multi-spot Biomarker Detection kit from Meso Scale Discovery: phospho-Akt (Ser473) whole cell lysate kit (#K151CAD) or phospho-Akt (Ser473)/Total Akt whole cell lysate kit (#K151OOD). The primary antibody specific for P-AKT-S473 (Kit #K151CAD) is coated onto an electrode in each well of the 96-well plates of the MSD kit: after the addition of a protein lysate to each well, the signal is visualised by adding a secondary detection antibody labelled with an electrochemoluminescent compound. The procedure followed is that described in the kit.
# (§1) On day 1, the PC3 cells are seeded into 96-well plates (TPP, #92096) at the concentration of 35 000 cells/well in 200 μl of DMEM medium (DMEM Gibco #11960-044) containing 10% of foetal calf serum (FCS Gibco, #10500-056) and 1% glutamine (L-Glu Gibco #25030-024), and incubated at 37° C., 5% CO2, overnight.
# On day 2, the cells are incubated in the presence or absence of the test products for 1 to 2 h at 37° C. in the presence of 5% of CO2. The molecules, diluted in dimethyl sulphoxide (DMSO Sigma #D2650), are added from a 20-times concentrated stock solution, the final percentage of DMSO being 0.1%. The molecules are tested either at a single concentration of less than or equal to 10 μM, or at increasing concentrations in a range that can extend from less than 1 nM to 10 μM.
# After this incubation, the cells are lysed for the preparation of the proteins. For this, after the culture medium has been drawn off, 50 μl of complete Tris Lysis Buffer of the MSD kit containing the protease and phosphatase inhibitor solutions are added to the wells and the cells are lysed for 1 h at 4° C. with shaking. At this stage, the plates containing the lysates can be stored at −20° C. or at −80° C.
# The wells of the 96-well plates of the MSD kit are saturated for 1 h at ambient temperature with the blocking solution of the MSD kit. Four washes are carried out with 150 μl of Tris Wash Buffer of the MSD kit. The lysates previously prepared are transferred into the 96-well multi-spot plates of the MSD kit and incubated for 1 h at ambient temperature, with shaking. Four washes are carried out with 150 μl of Tris Wash Buffer of the MSD kit. 25 μl of the MSD sulfo-tag detection antibody solution are added to the wells and incubated for 1 h at ambient temperature, with shaking. Four washes are carried out with 150 μl of Tris Wash Buffer of the MSD kit. 150 μl of Read Buffer of the MSD kit are added to the wells and the plates are read immediately on the S12400 instrument from Meso Scale Discovery.
# The instrument measures a signal for each well. Wells without cells and containing the lysis buffer serve to determine the background noise that will be subtracted from all the measurements (min). The wells containing cells in the absence of product and in the presence of 0.1% DMSO are considered to be the 100% signal (max). The percentage inhibition is calculated for each concentration of test product according to the following formula: (1-((test−min)/(max−min)))×100.
# The activity of the product is translated to IC50, obtained from a dose-response curve of the various concentrations tested and representing the dose giving 50% specific inhibition (absolute IC50). 2 independent experiments make it possible to calculate the mean of the IC50 values.
# [2] = tested on: translocation of the LC3 protein in Hela GFP-LC3 cells; assay: Translocation of the LC3 protein in Hela human cells measured by image analysis cytometry (test C, autophagy); conditions: EBSS + 10 μM hydroxychloroquine, cells with LC3 granulations, absolute IC50
# Experimental: Inhibitory activity of the molecules on autophagy is measured by means of the translocation of the LC3 protein from the cytoplasm to the autophagosomes. For this, Hela cells were transfected with a vector encoding the chimeric protein GFP-LC3. A Hela clone stably expressing the GFP-LC3 protein was selected.
# Study of the Translocation of the LC3 Protein in Hela Human Cells, Measured by Image Analysis Cytometry (Test C):
# as §1, with “Hela GFP-LC3” for “PC3”, “coated with poly-D-lysine (Greiner, #655946)” for “(TPP, #92096)”, “15000” for “35 000”
# On day 2, the cells are washed twice with EBSS (Sigma #E3024). The cells are then incubated in EBSS, 10 μM hydroxychloroquine and test products, for 2 hours at 37° C. in the presence of 5% CO2. The molecules are diluted in dimethyl sulphoxide (DMSO Sigma #D2650), the final DMSO percentage being 0.1%. The molecules are tested at increasing concentrations in a range that can extend from 10 nM to 1 μM.
# After this incubation, the cells are fixed with 4% paraformaldehyde (Sigma #HT501128 4L) for 10 min. The cells are then washed twice with PBS and the nuclei then stained with 2 μg/ml of Hoechst 33342 (Invitrogen #H3570). The 96-well plates are then read with the iCyte image analysis cytometer (Compucyte).
# The activity of the product is translated to IC50, obtained from a dose-response curve of various concentrations tested and representing the dose giving 50% specific inhibition (absolute IC50). 2 independent experiments make it possible to calculate the mean of the IC50 values.
# [3] = tested on: P. falciparum (highly chloroquine-resistant strain Fcm29-Cameroon); assay: Antimalarial activity test (radioactive micromethod of Desjardins, tritiated hypoxanthine incorporation); conditions: Plasmodium falciparum, Erythrocyte, infected human erythrocytes, 48 h
# Experimental: Antimalarial Activity Test
# The antimalarial activity tests are carried out according to the radioactive micromethod of Desjardins (R. E. Desjardins, C. J. Canfield, J. D. Haynes, J. D. Chulay, Antimicrob. Agents Chemother., 1979, 16, 710-718). The assays are carried out in 96-well microplates (Test Plates Ref. 92696, Techno Plastic Products Ag, Zollstrasse 155, CH-8219 Trasadingen). The P. falciparum strains are cultured in solutions of RPMI 1640 supplemented with 5% of human serum with a haematocrit at 2% and a blood parasite concentration at 1.5%. For each assay, the parasites are incubated with selected concentrations of drugs for 48 h at 37° C. in a humid atmosphere and at 5% CO2. Artemisinin, artesunate and also chloroquine diphosphate are used as reference molecules. The first dilution of the drug is prepared at 1 mg/ml in dimethyl sulphoxide. The range of dilutions of the successive daughter solutions is also prepared in dimethyl sulphoxide. Each daughter dilution is subsequently diluted to 1/50 in RPMI 1640 supplemented with 5% of human serum, all the dilutions being carried out at 37° C. These dilutions are then added to the parasites in culture in the microplates. After addition of the drug, the parasites are in culture in RPMI 1640 containing 5% of human serum and 1% of dimethyl sulphoxide. The parasite growth is measured by incorporation of tritiated hypoxanthine (added 24 h after the beginning of the exposure to the drug) compared with the incorporation in the absence of drug.
# The activity of the product is translated to % inhibition of the growth of P. falciparum (highly chloroquine-resistant strain Fcm29-Cameroon) at 1 μM and 0.1 μM in an in vitro test using infected human erythrocytes.
# [4] = Homo sapiens, PC-3, P-AKT-S473, PC3 cells
SMILES,"IC50 ([1]; P-AKT-S473, PC3 cells) [nM]",IC50 ([2]; 2 hours) [nM],"IC50 ([2]; Homo sapiens, HeLa, 2 h) [nM]","IC50 [1, 4] [nM]",inhibition at 0.1 µM ([3]; 0.1 μM) [%],inhibition at 1 µM [3] [%]
"CC(c1ccccc1)N1c2nc(N3CCOCC3)cc(=O)n2C[C@@]1(C)C(F)(F)F (single isomer, unassigned) [Example 32, (2S)-2-Methyl-7-(morpholin-4-yl)-1-[(1R or 1S)-1-phenylethyl]-2-(trifluoromethyl)-2,3-dihydroimidazo[1,2-a]pyrimidin-5(1H)-one]",22,> 1000,–,–,–,–
"CC(c1ccccc1F)N1c2nc(N3CCOCC3)cc(=O)n2C[C@@]1(C)C(F)(F)F (single isomer, unassigned) [Example 36, (2S)-1-[(1R or 1S)-1-(2-Fluorophenyl)ethyl]-2-methyl-7-(morpholin-4-yl)-2-(trifluoromethyl)-2,3-dihydroimidazo[1,2-a]pyrimidin-5(1H)-one]",4,–,995,–,–,–
"CC(c1ccccc1F)N1c2nc(N3CCOCC3)cc(=O)n2C[C@@]1(C)C(F)(F)F (single isomer, unassigned) [Example 37, (2S)-1-[(1R or 1S)-1-(2-Fluorophenyl)ethyl]-2-methyl-7-(morpholin-4-yl)-2-(trifluoromethyl)-2,3-dihydroimidazo[1,2-a]pyrimidin-5(1H)-one]",19,737,–,–,–,–
"C[C@@]1(C(F)(F)F)Cn2c(nc(N3CCOCC3)c(F)c2=O)N1Cc1ccccc1 [Example 19, (2S)-1-Benzyl-6-fluoro-2-methyl-7-(morpholin-4-yl)-2-(trifluoromethyl)-2,3-dihydroimidazo[1,2-a]pyrimidin-5(1H)-one]",–,–,425,26,–,–
"C[C@@]1(C(F)(F)F)Cn2c(nc(N3CCOCC3)cc2=O)N1Cc1csc2ccc(Cl)cc12 [Example 20, (2S)-1-[(5-Chloro-1-benzothiophen-3-yl)methyl]-2-methyl-7-(morpholin-4-yl)-2-(trifluoromethyl)-2,3-dihydroimidazo[1,2-a]pyrimidin-5(1H)-one]",–,–,703,18,–,–
"C[C@@]1(C(F)(F)F)Cn2c(nc(N3CCOCC3)cc2=O)N1C(=O)c1ccccc1 [Example 21, (2S)-2-Methyl-7-(morpholin-4-yl)-1-(phenylcarbonyl)-2-(trifluoromethyl)-2,3-dihydroimidazo[1,2-a]pyrimidin-5(1H)-one]",–,–,> 1000,7,–,–
"C[C@@]1(C(F)(F)F)Cn2c(nc(N3CCOCC3)cc2=O)N1Cc1ccc(F)c(Br)c1 [Example 24, (2S)-1-(3-Bromo-4-fluorobenzyl)-2-methyl-7-(morpholin-4-yl)-2-(trifluoromethyl)-2,3-dihydroimidazo[1,2-a]pyrimidin-5(1H)-one]",–,–,314,13,–,–
"C[C@@]1(C(F)(F)F)Cn2c(nc(N3CCOCC3)cc2=O)N1Cc1cccc(F)c1F [Example 25, (2S)-1-(2,3-Difluorobenzyl)-2-methyl-7-(morpholin-4-yl)-2-(trifluoromethyl)-2,3-dihydroimidazo[1,2-a]pyrimidin-5(1H)-one]",–,–,621,28,–,–
"COc1cccc(CCN2c3nc(N4CCOCC4)cc(=O)n3C[C@@]2(C)C(F)(F)F)c1 [Example 26, (2S)-1-[2-(3-Methoxyphenyl)ethyl]-2-methyl-7-(morpholin-4-yl)-2-(trifluoromethyl)-2,3-dihydroimidazo[1,2-a]pyrimidin-5(1H)-one]",–,–,–,16,14,75
"C[C@@]1(C(F)(F)F)Cn2c(nc(N3CCOCC3)cc2=O)N1CCc1ccccc1Cl [Example 27, (2S)-1-[2-(2-Chlorophenyl)ethyl]-2-methyl-7-(morpholin-4-yl)-2-(trifluoromethyl)-2,3-dihydroimidazo[1,2-a]pyrimidin-5(1H)-one]",–,–,51,24,–,53
"C[C@@]1(C(F)(F)F)Cn2c(nc(N3CCOCC3)cc2=O)N1Cc1nc2ccccc2o1 [Example 30, (2S)-1-(1,3-Benzoxazol-2-ylmethyl)-2-methyl-7-(morpholin-4-yl)-2-(trifluoromethyl)-2,3-dihydroimidazo[1,2-a]pyrimidin-5(1H)-one]",–,–,> 1000,89,–,–
"C[C@@]1(C(F)(F)F)Cn2c(nc(N3CCOCC3)cc2=O)N1Cc1c[nH]c2ccccc12 [Example 33, (2S)-1-(1H-indol-3-ylmethyl)-2-methyl-7-(morpholin-4-yl)-2-(trifluoromethyl)-2,3-dihydroimidazo[1,2-a]pyrimidin-5(1H)-one]",–,–,461,42,–,–
"Cc1ccccc1C(=O)N1c2nc(N3CCOCC3)cc(=O)n2C[C@@]1(C)C(F)(F)F [Example 35, (2S)-2-Methyl-1-[(2-methylphenyl)carbonyl]-7-(morpholin-4-yl)-2-(trifluoromethyl)-2,3-dihydroimidazo[1,2-a]pyrimidin-5(1H)-one]",–,–,> 1000,32,–,–
